Six molecules from US20260200982A1, “HER RECEPTOR DERIVED PEPTIDES AND METHODS OF USE THEREOF” (Ramot at Tel-Aviv University Ltd., priority 2022, published 2026) can be followed below.

Where two headings read alike, the source gives them in different places. Where a SMILES comes first, the peptide text is derived from it. Bridges are numbered along the chain shown (N, C = ends). Primed or numbered codes have the meaning given here. Where no end group is shown, it is not given here. [ ]: non-standard residue; d: D form. The star is where a group is joined. FITC′ = fluorescein isothiocyanate; Myristoyl = CCCCCCCCCCCCCC(=O)*; S5 = C=CCCC[C@](C)(N)C(=O)O

One test concerns DLD-1 cells. The experiment in a line: Colony formation assay, DLD-1. It counts as cell-based, human. The settings on record: 20 μM, 72 hours, FIG. 12. The method, then: Colony formation assay—Cells were plated onto 12-well plate (6×10^4 cells/well) and treated with either PBS or myr-NLS at the IC50 concentration for 3 days. Cells were collected and replated in 10-cm plates (at 3 dilutions of 1:10, 1:20 and 1:40). After 7-14 days when visible and yet separated colonies were formed, the cells were fixed with 0.1% acetic acid in PBS, and stained with 0.4% crystal violet in 0.1% acetic acid. Total colonies area was calculated using the ImageJ program.
In addition, a colony formation assay was conducted to further examine the anti-tumor effect of the myr-NLS (SEQ ID NO: 5), myr-NLS2 (SEQ ID NO: 15) and myr-NLS4 (SEQ ID NO: 17) peptides. To this end, DLD-1 cells were treated or untreated for 72 hours with 20 μM of the myr-peptides. Cells were then seeded at the same dilutions in new plates until colonies were formed.

A further test relates to MCF7 breast cancer cells. Format: cell-based, human. The note with it: for MCF7 cell viability: 10 μM peptide, FIGS. 6A-B. An excerpt: (§1) Cell lines—Human breast cancer cell lines SKBR3 [Peles E et al. EMBO J. (1993) 12(3):961-71] and MCF7 [Faigenbloom L et al., Mol Syst Biol. (2015) 11(12):845] and human glioblastoma U87 [Goldberg L et al. Cancer Res. (2006) 66(24):11709-17] cell line, as well as Rat-1 fibroblast cells and H-Ras-transformed Rat-1 cells (EJ cells) [Marom M et al. J Biol Chem. (1995) 270(38):22263-70] and human Panc-1 and MIA PaCa-2 pancreatic cell lines (Rak R et al. Oncoscience. 2014 1(1):39-48; Weisz B et al. Oncogene (1999) 18, 2579±2588) were all grown in Dulbecco's modified Eagle's medium (DMEM; Biological Industries, Beithaemek, Israel). Human colorectal cancer cell lines DLD-1 (ATTC Cat No. CCL-221), HCT-116 (ATTC Cat No. CCL-247) and LNCaP prostate cancer cells were grown in Roswell Park Memorial Institute 1640 (RPMI 1640) medium and McCoy's 5A media, respectively (Sigma-Aldrich). All media were supplemented with antibiotics and 10% heat-inactivated fetal bovine serum (FBS; Gibco). Human breast cell line MCF10A [Bott A et al. Oncotarget. (2017) 8(27):43897-43914] was grown in Dulbeco's Modified Eagle's Medium/Nutrient Mixture F-12 HAM medium (DMEM F-12 HAM; Sigma-Aldrich), supplemented with antibiotics, 5% inactivated horse serum (HS; Invitrogen), 2 mM L-glutamine (Biological Industries, Beithaemek, Israel), 0.1 μg/ml cholera toxin (Sigma-Aldrich), 0.5 μg/ml hydrocortisone (Sigma-Aldrich), 10 μg/ml insulin (Biological Industries, Beithaemek, Israel) and 2 ng/ml EGF (R&D Systems). Cells were incubated at 37° C. in 5% CO2 in air, and the medium was changed every 3-4 days. Cells were passaged in trypsin/disodium ethylenediaminetetraacetic acid (Biological Industries, Beithaemek, Israel) when confluency reached 70%. One day prior to treatment the cells were plated at ~50% confluency in a medium supplemented with 10% FBS or 5% HS, accordingly.
(§2) Methylene blue viability assay—Cells were plated in 96-wells plates at cell densities of 1.5×10^3 (EJ, DLD-1), 3×10^3 (Rat-1, HCT-116, U87), 5×10^3 (SKBR3, MCF7) and 6×10^3 (MCF10A) cells/well. […] Cell number determination was performed as described previously. IC-50 values were calculated using a non-linear regression model (logarithmic inhibitor vs. normalized response-variable slope) with the GraphPad Prism 6 software.

The test system of test [1] is SKBR3 breast cancer cells. It counts as cell-based, human.
Excerpt: as §1, §2

In test [2] the test system is non-cancerous (MCF10A) breast cell line. The experiment in a line: Methylene blue viability assay, MCF10A. It counts as cell-based, human. The note with it: 72 hours, 10 μM peptide; FIGS. 6A-B.
Excerpt: as §1
(§3) Methylene blue viability assay—Cells were plated in 96-wells plates at cell densities of 1.5×10^3 (EJ, DLD-1), 3×10^3 (Rat-1, HCT-116, U87), 5×10^3 (SKBR3, MCF7) and 6×10^3 (MCF10A) cells/well. On the following day, cells were treated as indicated, and grown for 72 hours. Cell number determination was performed as described previously. IC-50 values were calculated using a non-linear regression model (logarithmic inhibitor vs. normalized response-variable slope) with the GraphPad Prism 6 software.

Test [3] deals with H-Ras-transformed Rat-1 cells (EJ cells). Format: cell-based. An excerpt: Cell lines—Human breast cancer cell lines SKBR3 [Peles E et al. EMBO J. (1993) 12(3):961-71] and MCF7 [Faigenbloom L et al., Mol Syst Biol. (2015) 11(12):845] and human glioblastoma U87 [Goldberg L et al. Cancer Res. (2006) 66(24):11709-17] cell line, as well as Rat-1 fibroblast cells and H-Ras-transformed Rat-1 cells (EJ cells) [Marom M et al. J Biol Chem. (1995) 270(38):22263-70] and human Panc-1 and MIA PaCa-2 pancreatic cell lines (Rak R et al. Oncoscience. 2014 1(1):39-48; Weisz B et al. Oncogene (1999) 18, 2579±2588) were all grown in Dulbecco's modified Eagle's medium (DMEM; Biological Industries, Beithaemek, Israel). Human colorectal cancer cell lines DLD-1 (ATTC Cat No. CCL-221), HCT-116 (ATTC Cat No. CCL-247) and LNCaP prostate cancer cells were grown in Roswell Park Memorial Institute 1640 (RPMI 1640) medium and McCoy's 5A media, respectively (Sigma-Aldrich). All media were supplemented with antibiotics and 10% heat-inactivated fetal bovine serum (FBS; Gibco). Human breast cell line MCF10A [Bott A et al. Oncotarget. […]
Methylene blue viability assay—Cells were plated in 96-wells plates at cell densities of 1.5×10^3 (EJ, DLD-1), 3×10^3 (Rat-1, HCT-116, U87), 5×10^3 (SKBR3, MCF7) and 6×10^3 (MCF10A) cells/well. […] IC-50 values were calculated using a non-linear regression model (logarithmic inhibitor vs. normalized response-variable slope) with the GraphPad Prism 6 software.

For another test, the system named is U87 glioma cells. It counts as cell-based, human. The note with it: 72 h.
Excerpt: as §1, §3

In the next test the test system is DLD-1 colon cancer cells. It counts as cell-based, human. The settings on record: 72 h.
Excerpt: as §1, §3

Test [4] deals with HCT-116 colon cancer cells. Format: cell-based, human. The note with it: 72 h.
Excerpt: as §1, §3

For test [5], the system named is Panc-1 pancreatic cancer cells. It counts as cell-based, human. The note with it: 72 h.
Excerpt: as §1, §3

[6] abbreviates: 30 μM peptide for 48 hours, FIG. 5A.

In the case of “Myr-KRRQQKIRKYTMRRLL-OH (Myristoyl-KRRQQKIRKYTMRRLL-OH; SMILES CCCCCCCCCCCCCC(=O)N[C@@H](CCCCN)C(=O)N[C@@H](CCCNC(=N)N)C(=O)N[C@@H](CCCNC(=N)N)C(=O)N[C@@H](CCC(N)=O)C(=O)N[C@@H](CCC(N)=O)C(=O)N[C@@H](CCCCN)C(=O)N[C@H](C(=O)N[C@@H](CCCNC(=N)N)C(=O)N[C@@H](CCCCN)C(=O)N[C@@H](Cc1ccc(O)cc1)C(=O)N[C@H](C(=O)N[C@@H](CCSC)C(=O)N[C@@H](CCCNC(=N)N)C(=O)N[C@@H](CCCNC(=N)N)C(=O)N[C@@H](CC(C)C)C(=O)N[C@@H](CC(C)C)C(=O)O)[C@@H](C)O)[C@@H](C)CC) [myr-NLS2]”, the “colony formation (total colonies area)” value in the test with DLD-1 cells was “fewer and smaller colonies”.
Turning to “Myr-RRRHIVRK(FITC)RTLRRLL (Myristoyl-RRRHIVRK(FITC′)RTLRRLL) [myr-NLS-FITC]”, in the test on MCF7 breast cancer cells (MCF7, 72 hours, FIG. 4E), the “effect of FITC-conjugation on cell viability activity compared to myr-NLS” value was “did not affect myr-NLS activity”.
As to RRRRRRRRHIVRKRTLRRLL (R-NLS peptide), the “viability of SKBR3 breast cancer cells” value in [1] (80 μM peptide for 72 hours, FIG. 4A) is on record as “significantly reduced viability”.
As for “Myr-RRRHIVR(S5)RTL(S5)RLL (Myristoyl-RRRHIVR[S5]RTL[S5]RLL; staple 8-12; not fully specified; printed as Myr-RRRHIVR(S5)RTL(S5)RLL) [mN8-12]”, in the test on MCF7 breast cancer cells (72 hours), the MCF7 cell viability result was “decreased viability”. Also, the “viability of non-cancerous MCF10 breast cells” value in test [2] is recorded as “decreased viability”.
For `CCCCCCCCCCCCCC(=O)N[C@@H](CCCNC(=N)N)C(=O)N[C@@H](CCCNC(=N)N)C(=O)N[C@@H](CCCNC(=N)N)C(=O)N[C@@H](Cc1c[nH]cn1)C(=O)N[C@H](C(=O)N[C@@]1(C)CCCC=CCCC[C@@](C)(C(=O)N[C@@H](CC(C)C)C(=O)N[C@@H](CCCNC(=N)N)C(=O)N[C@@H](CCCNC(=N)N)C(=O)N[C@@H](CC(C)C)C(=O)N[C@@H](CC(C)C)C(=O)O)NC(=O)[C@H](CCCNC(=N)N)NC(=O)[C@H](CCCCN)NC(=O)[C@H](CCCNC(=N)N)NC1=O)[C@@H](C)CC` [mN6-10, Myr-RRRHI(S5)RKR(S5)LRRLL] (Myristoyl-RRRHI[S5]RKR[S5]LRRLL-OH; staple 6-10; C-terminus assumed), the IC50 came to 9.7 µM with MCF7 breast cancer cells; 18.9 µM in test [1] (72 h); 11.6 µM in test [3]; 15.9 µM in the test with U87 glioma cells; 9.4 µM in the test on DLD-1 colon cancer cells; 13.3 µM in test [4]. Moreover, in [5], half-maximal inhibition (IC50) required 7.6 µM. Further, the “viability of MCF7 breast cancer cells” value in the test on MCF7 breast cancer cells (setting [6]) is recorded as “even more efficient than the myr-NLS peptide”. Further, in the test on MCF7 breast cancer cells (72 hours), the MCF7 cell viability result is recorded as “decreased MCF7 cell viability”. For the same molecule, the “viability of SKBR3 breast cancer cells” value in test [1] (setting [6]) is on record as “even more efficient than the myr-NLS peptide”. In addition, in test [2], the “viability of non-cancerous MCF10 breast cells” value is recorded as “had no effect”.
With “Myr-RRRHIVRKRT(S5)RRL(S5) (Myristoyl-RRRHIVRKRT[S5]RRL[S5]; staple 11-15) [mN11-15]”, the MCF7 cell viability entry in the test on MCF7 breast cancer cells (72 hours) was “decreased MCF7 cell viability”. In addition, the “viability of non-cancerous MCF10 breast cells” value in [2] is reported as “had no effect”.
